Measured values from PubChem BioAssay (NCI).
Several values for one entry are separate records, joined by “and”; a condition that tells them apart may be missing. Equal values may be shown once.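 Test compounds were applied to cells in 96-well plates for 48 hours at 5 doses. The concentration for 50% growth inhibition is given as GI50. TGI is the concentration that stops growth completely.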

Columns and labels:
Assay in all cases: NCI-60 cell line screen, 48 h
[1] = tested on: IGROV1 ovarian
[2] = tested on: MALME-3M melanoma
[3] = tested on: NCI-H460 lung
[4] = tested on: OVCAR-5 ovarian
[5] = tested on: RPMI-8226 leukemia
[6] = tested on: SF-295 CNS
[7] = tested on: SF-539 CNS
[8] = tested on: TK-10 renal
[9] = tested on: UACC-62 melanoma
[10] = tested on: UO-31 renal

SMILES	GI50 [1]	TGI [1]	GI50 [2]	TGI [2]	GI50 [3]	TGI [3]	GI50 [4]	TGI [4]	GI50 [5]	TGI [5]	GI50 [6]	TGI [6]	GI50 [7]	TGI [7]	GI50 [8]	TGI [8]	GI50 [9]	TGI [9]	GI50 [10]	TGI [10]
Cc1ccc2c(c1)C(C)Cc1c(Cl)ncnc1N2C (configuration not stated)	3.39 µM	36.4 µM	1.76 µM	6.5 µM	3.66 µM	91 µM	5.05 µM	49.3 µM	3.56 µM	17.2 µM	3.12 µM	25.2 µM	3.85 µM	19 µM	4.32 µM	34.4 µM	3.72 µM	21.8 µM	3.03 µM	45.2 µM
COc1ccc(-n2cc(-c3cc(OC)c(OC)c(OC)c3)nc2SCc2ccccc2)cc1OC	31.6 µM	88 µM	> 100 µM	> 100 µM	> 100 µM	> 100 µM	> 100 µM	> 100 µM	25.8 µM	> 100 µM	> 100 µM	> 100 µM	> 100 µM	> 100 µM	> 100 µM	> 100 µM	44.9 µM	> 100 µM	17.7 µM	> 100 µM
O=C(c1ccccc1)[C@@H]1C[C@H](Sc2ccccc2)c2cc(Cl)ccc2N1	–	> 100 µM	–	> 100 µM	–	91.6 µM	–	> 100 µM	–	> 100 µM	–	92.5 µM	–	33.5 µM	–	79.6 µM	–	51.6 µM	–	56.7 µM
CCCCCCCCCCCCOC1C(C(COC2OC(C3COC(C)(C)O3)C3OC(C)(C)OC23)NC(=O)NS(=O)(=O)c2ccccc2)OC2OC(C)(C)OC21 (configuration not stated)	2.53 µM	11.2 µM	13.7 µM	41.8 µM	3.04 µM	12.6 µM	4.34 µM	13.8 µM	1.95 µM	6.77 µM	3.52 µM	16.6 µM	2.53 µM	6.54 µM	5.96 µM	19.6 µM	3.27 µM	13.7 µM	5.16 µM	19.7 µM
O=C1C=CC[C@H](/C=C/c2ccccc2)O1	5.44 µM	26.5 µM	18.5 µM	> 100 µM	1.53 µM	14.3 µM	1.92 µM	10.4 µM	0.742 µM	–	2.54 µM	> 40.9 µM	0.813 µM	8.24 µM	11.5 µM	> 53.2 µM	4.84 µM	19 µM	3.89 µM	8.99 µM
COc1ccc(/C=C(\C#N)n2nnc3ccccc32)cc1	0.158 µM	8.16 µM	0.418 µM	> 71.2 µM	0.322 µM	7.88 µM	0.463 µM	–	0.385 µM	24.6 µM	0.205 µM	6.66 µM	0.252 µM	0.869 µM	2.22 µM	58.6 µM	0.0893 µM	19.7 µM	1.01 µM	13 µM
CN1CC[C@]2(C)c3cc(O)ccc3CC3CCCC1C32C (some centres not stated)	–	> 100 µM	–	> 100 µM	–	> 100 µM	–	> 100 µM	–	> 100 µM	–	> 100 µM	–	> 100 µM	–	> 100 µM	–	> 100 µM	–	> 100 µM
COc1cc(C(O)C(=O)c2nc3ccc([N+](=O)[O-])cc3[nH]c2=O)ccc1O (configuration not stated)	–	> 100 µM	–	> 100 µM	–	> 100 µM	–	> 100 µM	–	> 100 µM	–	> 100 µM	–	> 100 µM	–	> 100 µM	–	> 100 µM	–	> 100 µM
Cc1ccc(NC(=O)C(=O)CC(=O)c2c(C)n([O-])c3ccccc3[n+]2=O)cc1	–	78.3 µM	–	65.2 µM	–	77.4 µM	–	> 100 µM	–	58.6 µM	–	> 100 µM	–	62.5 µM	–	> 100 µM	–	32.6 µM	–	> 100 µM
Cc1ccc2nc(-c3ccccc3)c(N=O)n2c1	–	> 100 µM	–	> 100 µM	–	> 100 µM	–	> 100 µM	–	> 100 µM	–	> 100 µM	–	92.7 µM	–	> 100 µM	–	49.6 µM	–	> 100 µM
Oc1[nH]c2c(Br)cccc2c1C1=Nc2ccccc2/C1=N/OCCN1CCCC1	0.469 µM	2.98 µM	1.16 µM	4.84 µM	0.325 µM	2.4 µM	1.21 µM and 1.91 µM	4.82 µM and 14.7 µM	1.35 µM and 1.59 µM	–	0.638 µM	3.69 µM	0.557 µM	2.05 µM	2.58 µM and 1.8 µM	> 100 µM	0.973 µM	2.45 µM	0.44 µM	4.97 µM
COc1cc(NC(=O)CSc2nc3ccc(C)cc3c(=O)n2Cc2ccccc2)cc(OC)c1OC	32.5 µM	> 100 µM	4.07 µM	31.3 µM	7.24 µM	> 100 µM	58 µM	> 100 µM	69.3 µM	> 100 µM	7.01 µM	> 100 µM	3.46 µM	13.8 µM	5.58 µM	92.3 µM	2.93 µM	> 100 µM	5.97 µM	> 100 µM
Oc1ccccc1C=Nc1nc(SCc2ccccc2)nc2[nH]ncc12	> 100 µM	> 100 µM	34.8 µM	> 100 µM	36.9 µM	> 100 µM	> 100 µM	> 100 µM	30.8 µM	> 100 µM	52 µM	> 100 µM	> 100 µM	> 100 µM	23.9 µM	> 100 µM	28.1 µM	73.7 µM	94.8 µM	> 100 µM
O=C(Nc1ccc2[nH]c(=S)sc2c1)Nc1ccccc1F	3.58 µM	> 100 µM	18.4 µM	64.2 µM	38 µM	> 100 µM	56.4 µM	> 100 µM	18 µM	> 100 µM	28.8 µM	> 100 µM	29.6 µM	> 100 µM	51.5 µM	> 100 µM	18.5 µM	> 100 µM	4.09 µM	22.5 µM
Cc1cc(Cc2cc(C)cc(C(C)(C)C)c2O)c(O)c(Cc2cc(C)cc(C(C)(C)C)c2O)c1	–	14 µM	–	5.13 µM	–	4.22 µM	–	14.2 µM	–	> 20.4 µM	–	10.1 µM	–	6.54 µM	–	8.59 µM	–	4.53 µM	–	10.4 µM
COc1cc(-n2cc(-c3ccc(Cl)cc3)nc2SCc2cccc(C#N)c2)cc(OC)c1OC	54.9 µM	> 100 µM	18.9 µM	60.2 µM	95.5 µM	> 100 µM	> 100 µM	> 100 µM	> 100 µM	> 100 µM	48.1 µM	> 100 µM	15.5 µM	48.1 µM	30.5 µM	> 100 µM	21.9 µM	> 100 µM	60.4 µM	> 100 µM
N#CC1=C(N)Oc2c(sc3c(Br)cccc23)C1c1ccc(Br)cc1 (configuration not stated)	0.887 µM	12.9 µM	1.39 µM	20.7 µM	0.668 µM	4.51 µM	3.12 µM	14.3 µM	1.44 µM	16 µM	0.38 µM	2.85 µM	0.793 µM	3.02 µM	0.986 µM	2.57 µM	0.636 µM	16.5 µM	1.95 µM	11.8 µM
